Source: ChEMBL document CHEMBL1909046, “DrugMatrix in vitro pharmacology data”

What was measured:
[1] = DRUGMATRIX: GABAA, Muscimol, Central radioligand binding (ligand: [3H] Muscimol); format: cell membranes, Rattus norvegicus, Wistar, Brain, Membrane; settings: Not Active = under 50% inhibition at 10 µM
Adenosine receptor A2a = Adenosine receptor A2a (Homo sapiens, UniProt P29274); test: DRUGMATRIX: Adenosine A2A radioligand binding (ligand: […]); format: cell membranes, HEK293, Membrane; settings: Not Active = under 50% inhibition at 10 µM
[2] = DRUGMATRIX: GABAA, Chloride Channel, TBOB radioligand binding (ligand: [3H] TBOB); format: cell membranes, Rattus norvegicus, Wistar, Cerebral cortex, Membrane; settings: Not Active = under 50% inhibition at 10 µM
Melanocortin receptor 3 = Melanocortin receptor 3 (Homo sapiens, UniProt P41968); format: cell membranes, Membrane; settings: hek293; note: in other assays of this panel Not Active means under 50% inhibition at 10 µM
[3] = DRUGMATRIX: Phosphodiesterase PDE4 enzyme inhibition (substrate: [3H]cAMP + cAMP); settings: u-937, Not Active = under 50% inhibition at 10 µM
[4] = biological target: T1, Polyunsaturated fatty acid lipoxygenase ALOX15 (Oryctolagus cuniculus, UniProt P12530); test: biochemical; format: tissue-based, Reticulocytes;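 note: inhibition of 15-lipoxygenase enzyme activity measured with linoleic acid as the substrate; in other assays of this panel Not Active means under 50% inhibition at 10 µM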
T1 sequence (P12530 whole entry): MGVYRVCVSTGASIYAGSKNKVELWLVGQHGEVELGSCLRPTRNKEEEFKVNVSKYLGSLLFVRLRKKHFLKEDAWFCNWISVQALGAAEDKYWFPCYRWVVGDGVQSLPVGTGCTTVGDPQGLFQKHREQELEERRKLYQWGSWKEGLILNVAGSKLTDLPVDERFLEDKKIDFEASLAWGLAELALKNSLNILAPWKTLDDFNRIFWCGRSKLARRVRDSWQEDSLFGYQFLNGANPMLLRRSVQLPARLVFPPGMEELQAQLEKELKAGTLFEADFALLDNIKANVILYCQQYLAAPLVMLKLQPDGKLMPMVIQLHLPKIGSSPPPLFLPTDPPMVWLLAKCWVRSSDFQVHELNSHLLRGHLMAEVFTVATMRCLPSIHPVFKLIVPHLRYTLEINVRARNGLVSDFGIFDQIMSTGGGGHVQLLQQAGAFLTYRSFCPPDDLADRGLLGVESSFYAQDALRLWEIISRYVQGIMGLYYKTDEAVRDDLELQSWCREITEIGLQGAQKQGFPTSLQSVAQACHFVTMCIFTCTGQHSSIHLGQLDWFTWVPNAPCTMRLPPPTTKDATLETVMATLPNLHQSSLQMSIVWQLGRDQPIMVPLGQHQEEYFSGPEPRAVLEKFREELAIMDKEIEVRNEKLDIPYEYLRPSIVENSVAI

Melanocortin receptor 3, sequence (P41968 whole entry): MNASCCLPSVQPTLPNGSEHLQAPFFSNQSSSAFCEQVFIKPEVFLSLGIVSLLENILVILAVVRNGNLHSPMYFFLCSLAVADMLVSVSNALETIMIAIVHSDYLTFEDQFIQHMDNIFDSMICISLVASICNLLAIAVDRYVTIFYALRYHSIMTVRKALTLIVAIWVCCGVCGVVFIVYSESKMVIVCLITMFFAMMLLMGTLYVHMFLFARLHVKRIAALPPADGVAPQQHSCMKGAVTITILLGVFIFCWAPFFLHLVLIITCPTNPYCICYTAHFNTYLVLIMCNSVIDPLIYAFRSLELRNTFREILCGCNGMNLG
Adenosine receptor A2a, sequence (P29274 whole entry): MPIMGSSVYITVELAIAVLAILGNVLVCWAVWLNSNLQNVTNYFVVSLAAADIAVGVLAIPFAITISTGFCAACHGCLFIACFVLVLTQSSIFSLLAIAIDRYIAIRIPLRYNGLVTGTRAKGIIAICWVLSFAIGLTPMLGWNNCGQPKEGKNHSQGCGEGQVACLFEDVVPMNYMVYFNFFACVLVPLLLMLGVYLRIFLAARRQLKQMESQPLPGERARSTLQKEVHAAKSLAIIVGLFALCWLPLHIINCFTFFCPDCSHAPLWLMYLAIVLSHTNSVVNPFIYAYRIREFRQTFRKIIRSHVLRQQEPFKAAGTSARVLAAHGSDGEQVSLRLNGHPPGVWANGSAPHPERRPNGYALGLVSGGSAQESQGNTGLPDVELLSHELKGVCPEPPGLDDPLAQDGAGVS

Compound	IC50 [1]	Ki [1]	IC50 (Adenosine receptor A2a; hek293)	IC50 [2]	Ki [2]	IC50 (Melanocortin receptor 3)	IC50 [3]	Ki [3]	IC50 ([4]; reticulocytes)	IC50 (Adenosine receptor A2a; read-out: IC50) [µM]	Ki (Adenosine receptor A2a; read-out: Ki) [µM]	IC50 ([3]; read-out: IC50) [µM]	IC50 ([4]; read-out: IC50) [µM]
O=c1[nH]c(=O)n([C@H]2C[C@H](O)[C@@H](CO)O2)cc1F [FLOXURIDINE]	Not Active	Not Active	Not Active	Not Active	Not Active	Not Active	Not Active	Not Active	Not Active				
COC(=O)Nc1nc2cc(C(=O)c3ccc(F)cc3)ccc2[nH]1 [FLUBENDAZOLE]	Not Active	Not Active	Not Active	Not Active	Not Active	Not Active	Not Active	Not Active	Not Active				
CC(=O)OCC(=O)[C@@]1(O)CC[C@H]2[C@@H]3CCC4=CC(=O)CC[C@]4(C)[C@@]3(F)[C@@H](O)C[C@@]21C [FLUDROCORTISONE ACETATE]	Not Active	Not Active	Not Active	Not Active	Not Active	Not Active	Not Active	Not Active	Not Active				
CCOC(=O)c1ncn2c1CN(C)C(=O)c1cc(F)ccc1-2 [FLUMAZENIL]	Not Active	Not Active	Not Active	Not Active	Not Active	Not Active	Not Active	Not Active	Not Active				
CC(=O)OCC(=O)[C@@]12OC(C)(C)O[C@@H]1C[C@H]1[C@@H]3C[C@H](F)C4=CC(=O)C=C[C@]4(C)[C@@]3(F)[C@@H](O)C[C@@]12C [FLUOCINONIDE]	Not Active	Not Active	Not Active	Not Active	Not Active	Not Active	Not Active	Not Active	Not Active				
O=C(O)P(=O)(O)O [FOSCARNET]	Not Active	Not Active	Not Active	Not Active	Not Active	Not Active	Not Active	Not Active	Not Active				
Cc1ccc(C)c(OCCCC(C)(C)C(=O)O)c1 [GEMFIBROZIL]	Not Active	Not Active	Not Active	Not Active	Not Active	Not Active	Not Active	Not Active	Not Active				
O=c1c(-c2ccc(O)cc2)coc2cc(O)cc(O)c12 [GENISTEIN]	Not Active	Not Active		Not Active	Not Active	Not Active				17.4	9.79	10.9	9.03
CCC1=C(C)CN(C(=O)NCCc2ccc(S(=O)(=O)NC(=O)N[C@H]3CC[C@H](C)CC3)cc2)C1=O [GLIMEPIRIDE]	Not Active	Not Active	Not Active	Not Active	Not Active	Not Active	Not Active	Not Active	Not Active				
Nc1cc(-c2ccncc2)c[nH]c1=O [INAMRINONE]	Not Active	Not Active	Not Active	Not Active	Not Active	Not Active	Not Active	Not Active	Not Active				
CCCCC1=NC2(CCCC2)C(=O)N1Cc1ccc(-c2ccccc2-c2nnn[nH]2)cc1 [IRBESARTAN]	Not Active	Not Active	Not Active	Not Active	Not Active	Not Active	Not Active	Not Active	Not Active				
CN1CCC(=C2c3ccccc3CC(=O)c3sccc32)CC1 [KETOTIFEN]	Not Active	Not Active	Not Active	Not Active	Not Active	Not Active	Not Active	Not Active	Not Active				
N[C@@H](Cn1ccc(=O)c(O)c1)C(=O)O [L-MIMOSINE]	Not Active	Not Active	Not Active	Not Active	Not Active	Not Active	Not Active	Not Active	Not Active				
C[N+](C)(C)C[C@H](O)CC(=O)[O-] [LEVOCARNITINE]	Not Active	Not Active	Not Active	Not Active	Not Active	Not Active	Not Active	Not Active	Not Active				
C[C@H]1COc2c(N3CCN(C)CC3)c(F)cc3c(=O)c(C(=O)O)cn1c23.C[C@H]1COc2c(N3CCN(C)CC3)c(F)cc3c(=O)c(C(=O)O)cn1c23.O [LEVOFLOXACIN]	Not Active	Not Active	Not Active	Not Active	Not Active	Not Active	Not Active	Not Active	Not Active				
CCn1cc(C(=O)O)c(=O)c2cc(F)c(N3CCNC(C)C3)c(F)c21 (stereo not drawn) [LOMEFLOXACIN]	Not Active	Not Active	Not Active	Not Active	Not Active	Not Active	Not Active	Not Active	Not Active				
CN1CCCC(CN2c3ccccc3Sc3ccccc32)C1 (stereo not drawn) [MEPAZINE]	Not Active	Not Active	Not Active	Not Active	Not Active	Not Active	Not Active	Not Active	Not Active				
Cc1cccc(C)c1NC(=O)C1CCCCN1C (stereo not drawn) [MEPIVACAINE]	Not Active	Not Active	Not Active	Not Active	Not Active	Not Active	Not Active	Not Active	Not Active				
CN(C)C(=N)NC(=N)N [METFORMIN]	Not Active	Not Active	Not Active	Not Active	Not Active	Not Active	Not Active	Not Active	Not Active				
CC(C)(C)NCC(O)COc1cccc2c1CC(O)C(O)C2 (stereo not drawn) [NADOLOL]	Not Active	Not Active	Not Active	Not Active	Not Active	Not Active	Not Active	Not Active	Not Active				
C[C@]12CC[C@H]3[C@@H](CCC4=CC(=O)CC[C@@H]43)[C@@H]1CC[C@@H]2O [NANDROLONE]	Not Active	Not Active	Not Active	Not Active	Not Active	Not Active	Not Active	Not Active	Not Active				
C[C@@H]1C/C=C/C=C/C=C/C=C/[C@H](O[C@@H]2O[C@H](C)[C@@H](O)[C@H](N)[C@@H]2O)C[C@@H]2O[C@](O)(C[C@@H](O)C[C@H]3O[C@@H]3/C=C/C(=O)O1)C[C@H](O)[C@H]2C(=O)O [NATAMYCIN]	Not Active	Not Active	Not Active	Not Active	Not Active	Not Active	Not Active	Not Active	Not Active				
CN(C)C(=O)Oc1cccc([N+](C)(C)C)c1.[Br-] [NEOSTIGMINE BROMIDE]	Not Active	Not Active	Not Active	Not Active	Not Active	Not Active	Not Active	Not Active	Not Active				
NC(=O)c1cccnc1 [NIACINAMIDE]	Not Active	Not Active	Not Active	Not Active	Not Active	Not Active	Not Active	Not Active	Not Active				
CS(=O)(=O)Nc1ccc([N+](=O)[O-])cc1Oc1ccccc1 [NIMESULIDE]	Not Active	Not Active	Not Active	Not Active	Not Active	Not Active	Not Active	Not Active	Not Active				
CN1C(=O)CN=C(c2ccccc2)c2cc([N+](=O)[O-])ccc21 [NIMETAZEPAM]	Not Active	Not Active	Not Active	Not Active	Not Active	Not Active	Not Active	Not Active	Not Active				
COc1ccc2c(c1OC)C(=O)O[C@@H]2[C@H]1c2c(cc3c(c2OC)OCO3)CCN1C [NOSCAPINE]	Not Active	Not Active	Not Active	Not Active	Not Active	Not Active	Not Active	Not Active	Not Active				
